Reference: patent US20250388810A1, “Kit for Sustaining Luminescence of Luminescent Substrate and Method for Sustaining Luminescence of Luminescent Substrate” (SHIMADZU CORPORATION, priority 2024, published 2025)
“Also recorded” adds a separate entry of the source.

How the values were obtained:
Format in all cases: biochemical
[1] = target: T1, NanoLuc (Oplophorus gracilirostris, UniProt Q9GV45, A31E/A60N/A81I/F95D/I117V/K70R/L54V/L99Q/M102K/N193R/P142E/Q151K/Q38R/Q45L/V71I/Y165I); experiment: Experiment 2: luminescence reaction of NanoLuc and CTZh in the presence of surfactant and ethanol; details: luminescent enzyme NanoLuc for example 10 nM, CTZh, EtOH
T1 construct: purchased Promega
Protocol: The experiment was performed in the same manner as in Experiment 1 except that NanoLuc (manufactured by Promega) was used as a luminescent enzyme and NP-40 or CHAPS was used as a surfactant. FIG. 3A is graphs showing a change in luminescence intensity over time. […] FIG. 3B is graphs showing the correlation between the maximum value of the normalized luminescence intensity (vertical axis) and the concentration of the luminescent enzyme and the concentration of the surfactant (horizontal axis). FIG. 3C is graphs showing the correlation between the half-life of the luminescence reaction (horizontal axis) and the concentration of the luminescent enzyme and the concentration of the surfactant (vertical axis).

[2] = test system: picALuc; experiment: Experiment 1: luminescence reaction of picALuc and CTZh in the presence of surfactant and ethanol; details: luminescent enzyme picALuc for example 1 nM, CTZh, EtOH
Protocol: When a luminescent enzyme and a luminescent substrate were allowed to react in the presence of a surfactant and an alcohol, how the luminescence characteristics of the luminescent substrate change was examined. First, the luminescent enzyme and the surfactant described below were diluted in a buffer (137 mM NaCl, 9.6 mM KH2PO4, 2.7 mM KCl, pH 7.0) to obtain an enzyme solution with different concentrations of the luminescent enzyme and the surfactant.
Also, coelenterazine h (CTZh), which is the luminescent substrate, was dissolved in ethanol (EtOH) so that a final concentration thereof was 2.4 mM, to obtain an ethanol solution of CTZh. […]
Then, 50 μL of the enzyme solution and 50 μL of the substrate solution were mixed. The luminescence value was measured immediately after mixing. […] FIG. 1A is graphs showing a change in luminescence intensity over time. […] FIG. 1B is graphs showing the correlation between the maximum value of the normalized luminescence intensity (vertical axis) and the concentration of the luminescent enzyme and the concentration of the surfactant (horizontal axis). FIG. 1C is graphs showing the correlation between the half-life of the luminescence reaction (horizontal axis) and the concentration of the luminescent enzyme and the concentration of the surfactant (vertical axis). […]

[3] = test system: picALuc; experiment: Experiment 7: inhibition of luminescence reaction by substrate metabolites with or without NP-40; details: metabolite 1 μM; for luminescence value on addition of substrate metabolite: picALuc 100 nM, nCTZ 8 μM, 60 minutes incubation; for suppression of the decreased ratio in the luminescence value by addition of a surfactant: NP-40 (+) versus NP-40 (−)
Protocol: CTM, CTO, or CTMD was added to a mixture solution having the composition described below so that a final concentration was 0 M or 1 μM, followed by incubation at room temperature for 60 minutes. The luminescence value was then measured. At this time, as the measurement device, a GloMax (registered trademark) Navigator Microplate Luminometer (manufactured by Promega) was used. The time indicating the maximum luminescence value (time from addition of the substrate) varies greatly depending on each condition. Therefore, in this experiment, the luminescence value immediately after the addition of the substrate was compared, rather than the maximum luminescence value, so that the amount of the substrate consumed due to the luminescence reaction and the amount of the substrate oxidation due to elapsed time were not taken into consideration. FIG. 10A is graphs showing the correlation between the relative light unit (vertical axis) and the presence or absence of the surfactant and the substrate metabolites (horizontal axis). FIG. 10B is graphs showing the relationship between the rate of decrease in the amount of luminescence due to the addition of the substrate metabolites (vertical axis) and the presence or absence of the surfactant (horizontal axis).
NP-40 (final concentration 0% or 0.01%) picALuc (final concentration 100 nM) nCTZ (final concentration 8 μM) […]
Buffer (137 mM NaCl, 9.6 mM KH2PO4, 2.7 mM KCl, pH 7.0, remainder)

[4] = test system: picALuc; experiment: Experiment 3: luminescence reaction of picALuc and nCTZ with methanol and NP-40; details: picALuc 100 nM, nCTZ 8 μM, methanol
Protocol: The experiment was performed in the same manner as in Experiment 1 except that methanol (MeOH) manufactured by FUJIFILM Wako Pure Chemical Corporation) was used as an alcohol, NP-40 was used as a surfactant, and native coelenterazine (nCTZ, final concentration 8 μM) (manufactured by FUJIFILM Wako Pure Chemical Corporation) was used as a luminescent substrate. At this time, the final concentration of the luminescent enzyme (picALuc) was set to 100 nM. FIG. 4 is a graph showing a change in luminescence intensity over time.

[5] = test system: streptavidin-fused picALuc; experiment: Experiment 4: simulated detection system, biotinylated BSA detected with streptavidin-fused picALuc
Protocol: In this experiment, as a simulated detection system, biotinylated bovine serum albumin (BSA) was immobilized on a base of a 96-well plate and detection was performed using streptavidin-fused picALuc (FIG. 6A). Specifically, 100 μL of a biotinylated BSA solution (final concentration 10 μg/mL) was first added to each well. After each well was washed with a washing buffer (PBST (0.1% Tween)), blocking was performed by addition of 200 μL of a blocking buffer (20% Immnoblock (manufactured by KAC Co., ltd.) in PBS) to each well. After each well was washed with a washing buffer again, 100 μL of a streptavidin-fused picALuc solution (final concentration 1 μg/mL, diluted with 5% Immunoblock in PBST) was added to each well. Each well was washed with a washing buffer.
Then, immediately before the luminescent substrate was added, NP-40 was diluted with a buffer (PBS) so that the final concentration was 0.002 to 0.2%, and 100 μL of the resulting diluted solution was added to each well. Next, 100 μL of the substrate solution prepared in the same manner as in Experiment 1 was added to each well. The luminescence value was measured immediately after the substrate solution was added. At this time, as the measurement device, GloMax (registered trademark) Navigator Microplate Luminometer (manufactured by Promega) was used. FIG. 6B is a graph showing a change in luminescence intensity over time. […] FIG. 6C is a graph showing the correlation between the maximum value of the relative light unit (vertical axis) and the concentration of the surfactant (horizontal axis). FIG. 6D is a graph showing the correlation between the integrated value of the relative light unit (vertical axis) and the concentration of the surfactant (horizontal axis). The integrated value is the integrated value obtained for 30 minutes after the addition of the substrate solution.

[6] = test system: picALuc; experiment: Experiment 8: LC-MS of substrate consumed and substrate metabolites produced in luminescence reaction; details: NP-40 0.01% versus 0%, picALuc 100 nM, nCTZ 8 μM
Protocol: By LC-MS analysis of a reaction solution containing picALuc and nCTZ, the effect of a surfactant (NP-40) on the amount of the substrate (nCTZ) consumed and the amount of the substrate metabolites (CTM, CTO, CTMD) produced was examined.
A substrate solution (100 μL) having the following composition was added to an enzyme solution (100 μL) having the following composition, to prepare a reaction solution.
At 0 minutes of the luminescence reaction (before the addition of the substrate solution), 10 minutes after the luminescence reaction, or 60 minutes after the luminescence reaction, 1/1000 (volume ratio) of hydrochloric acid was added to the reaction solution to stop the luminescence reaction, and methanol, which was five times the amount of the reaction solution, was added, followed by centrifugation. Then, the supernatant was collected to remove the luminescent enzyme. After that, each reaction solution was analyzed with an LC-MS device to measure the respective amounts of nCTZ, CTM, CTO, and CTMD (FIG. 11). The measurement conditions at this time are as follows.
It was thought that the amount of nCTZ was greater than the actual amount when NP-40 was added due to ion effects. Therefore, it was normalized to the amount of nCTZ when NP-40 was not added. Furthermore, the fact that CTM, CTO, and CTMD were already present in the reaction solution at 0 minutes of luminescence reaction is thought to be caused by converting nCTZ to these compounds during storage of nCTZ. Therefore, the amount of nCTZ consumed and the respective amounts of CTM, CTO, and CTMD produced were calculated by subtracting the amount of each component that was present before the reaction (FIG. 12).

T1 sequence (Q9GV45 other isoform, or with tags, fused parts or gaps with the stated changes): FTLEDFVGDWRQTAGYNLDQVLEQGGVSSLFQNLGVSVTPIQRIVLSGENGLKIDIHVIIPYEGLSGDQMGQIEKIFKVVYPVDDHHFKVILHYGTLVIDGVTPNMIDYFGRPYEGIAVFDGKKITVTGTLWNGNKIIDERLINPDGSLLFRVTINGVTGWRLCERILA

Compound	maximum value of the normalized luminescence intensity [1]	maximum value of the normalized luminescence intensity [2]	luminescence value on addition of substrate metabolite ([3]; NP-40 (+) 0.01%)	suppression of the decreased ratio in the luminescence value by addition of a surfactant [3]	luminescence value on addition of substrate metabolite ([3]; NP-40 (−))	also measured
CC(CCC(=O)NCCC[N+](C)(C)CCCS(=O)(=O)O)C1CCC2C3C(O)CC4CC(O)CCC4(C)C3CC(O)C12C (centres unmarked) [CHAPS]	enhancement of the luminescence intensity was also observed	enhancement of the luminescence intensity was also observed				
Nc1ncc(-c2ccc(O)cc2)nc1Cc1ccccc1 [CTM, coelenteramine]			a decrease in the luminescence value was clearly observed; also recorded: a decrease in the luminescence value was small	no significant suppression was observed	the luminescence value significantly decreased	
O=C(Cc1ccc(O)cc1)Nc1ncc(-c2ccc(O)cc2)nc1Cc1ccccc1 [CTMD, coelenteramide]				a tendency to significantly suppress the decreased ratio	the luminescence value significantly decreased	
O=c1[nH]cc(-c2ccc(O)cc2)nc1Cc1ccccc1 [CTO, 3-benzyl-5-(4-hydroxyphenyl) pyrazin-2 (1H)-one]			a decrease in the luminescence value was small	a tendency to significantly suppress the decreased ratio	a decrease in the luminescence value was observed	
poly(oxyethylene)=octylphenyl ether [NP-40]	enhancement of the luminescence intensity was also observed	enhancement of the luminescence intensity was also observed				change in luminescence intensity over time [4]: sustained luminescence and enhancement of the luminescence intensity were observed; maximum value of the relative light unit versus when NP-40 was not added ([5]; 0.1% NP-40): 2.2 times; integrated value of the relative light unit versus when NP-40 was not added ([5]; 0.1% NP-40, integrated for 30 minutes after addition of substrate solution): 3.2 times; maximum value of the relative light unit and sustained luminescence ([5]; NP-40 0.002 to 0.2%): an increase in the maximum value of the relative light unit and the sustained luminescence were observed dependently on the concentration; amount of CTM produced when the surfactant was added [6]: decreased; amount of CTMD produced when the surfactant was added [6]: increased; amount of CTO produced when the surfactant was added [6]: remained almost unchanged; amount of nCTZ consumed when the surfactant was added [6]: increased
